Consider eight compounds from ChEMBL document CHEMBL1132734, “2-Nitro analogues of adenosine and 1-deazaadenosine: synthesis and binding studies at the adenosine A1, A2A and A3 receptor subtypes” (Bioorg Med Chem Lett, 2000).

The target of one assay is Adenosine receptor A2a (Rattus norvegicus, UniProt P30543). As to the kind of experiment: Binding affinity for adenosine A2A receptor of rat striatal membrane by displacing [3H]-ZM 241385. More on the design: species or system Striatum.
A further assay has as its target T1, Adenosine receptor A1 (Rattus norvegicus, UniProt P25099).
T1 sequence (P25099 whole entry): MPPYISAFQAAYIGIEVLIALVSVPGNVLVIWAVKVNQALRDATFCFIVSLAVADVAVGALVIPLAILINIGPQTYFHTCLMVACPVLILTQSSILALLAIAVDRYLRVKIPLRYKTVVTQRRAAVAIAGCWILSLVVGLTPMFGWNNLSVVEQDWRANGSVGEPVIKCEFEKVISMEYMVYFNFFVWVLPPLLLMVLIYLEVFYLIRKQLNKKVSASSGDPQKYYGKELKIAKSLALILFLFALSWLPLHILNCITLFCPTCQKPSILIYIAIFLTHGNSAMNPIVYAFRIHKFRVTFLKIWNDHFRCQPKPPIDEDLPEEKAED
In words: Binding affinity for Adenosine A1 receptor of rat cortical membrane by displacing [3H]DPCPX.

The next assay addresses T2, Adenosine receptor A3 (Homo sapiens, UniProt P0DMS8).
T2 sequence (P0DMS8 whole entry): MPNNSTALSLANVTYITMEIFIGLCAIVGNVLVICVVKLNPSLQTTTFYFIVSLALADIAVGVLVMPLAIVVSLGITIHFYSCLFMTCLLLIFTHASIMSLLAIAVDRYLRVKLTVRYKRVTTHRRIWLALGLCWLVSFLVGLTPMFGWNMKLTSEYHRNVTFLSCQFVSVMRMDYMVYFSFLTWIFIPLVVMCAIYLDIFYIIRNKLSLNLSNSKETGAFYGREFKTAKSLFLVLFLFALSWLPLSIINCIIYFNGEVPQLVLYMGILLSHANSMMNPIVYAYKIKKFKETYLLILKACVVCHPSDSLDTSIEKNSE
As to the kind of experiment: Binding affinity for Adenosine A3 receptor expressed in HEK 293 cells by displacing i[125I]-ABMECA. The class given is cell-based, HEK293.

The target of assay [1] is Adenosine receptor A2a (Rattus norvegicus) (UniProt P30543). As to the kind of experiment: Binding affinity for adenosine A2A receptor of rat striatal membrane by displacing [3H]ZM-241385.
Chain of Adenosine receptor A2a (Rattus norvegicus) (P30543 whole entry): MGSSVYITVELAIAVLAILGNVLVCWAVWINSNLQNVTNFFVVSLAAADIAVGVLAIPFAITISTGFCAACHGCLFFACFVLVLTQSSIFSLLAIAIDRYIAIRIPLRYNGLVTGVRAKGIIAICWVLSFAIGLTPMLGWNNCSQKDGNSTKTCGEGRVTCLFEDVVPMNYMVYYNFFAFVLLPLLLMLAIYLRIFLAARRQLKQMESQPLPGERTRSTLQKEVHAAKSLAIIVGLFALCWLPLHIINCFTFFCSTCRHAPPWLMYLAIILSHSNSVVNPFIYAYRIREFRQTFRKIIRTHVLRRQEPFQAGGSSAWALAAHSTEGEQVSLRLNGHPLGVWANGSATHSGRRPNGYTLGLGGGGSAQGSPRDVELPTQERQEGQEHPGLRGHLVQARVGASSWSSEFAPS

Chain of Adenosine receptor A2a (P30543 whole entry): as above

Regarding `O=[N+]([O-])c1nc(NCc2cccc(I)c2)c2ncn([C@@H]3O[C@H](CO)[C@@H](O)[C@H]3O)c2n1`, the Ki stood at 1.44 µM at Adenosine receptor A2a, 0.138 µM at Adenosine receptor A1 and 0.012 µM on Adenosine receptor A3.
In the case of `Nc1cc([N+](=O)[O-])nc2c1ncn2[C@@H]1O[C@H](CO)[C@@H](O)[C@H]1O`, the results for the Ki on Adenosine receptor A2a, on Adenosine receptor A1 and on Adenosine receptor A3 were 0.437 µM, 0.646 µM and 0.216 µM, respectively.
For `O=[N+]([O-])c1nc(NC2CCCC2)c2ncn([C@@H]3O[C@H](CO)[C@@H](O)[C@H]3O)c2n1` the same measures were 3.51 µM, 0.0471 µM and 0.222 µM.
Take `CONc1nc([N+](=O)[O-])nc2c1ncn2[C@@H]1O[C@H](CO)[C@@H](O)[C@H]1O`: the Ki amounted to 1.16 µM on Adenosine receptor A1 and 0.0358 µM on Adenosine receptor A3. Further, the Displacement in assay [1] was 9%.
In the case of `O=[N+]([O-])c1cc(NCc2cccc(I)c2)c2ncn([C@@H]3O[C@H](CO)[C@@H](O)[C@H]3O)c2n1`, the Ki was found to be 0.208 µM on Adenosine receptor A2a, 0.11 µM on Adenosine receptor A1 and 0.0098 µM at Adenosine receptor A3.
The corresponding values for `Nc1nc([N+](=O)[O-])nc2c1ncn2[C@@H]1O[C@H](CO)[C@@H](O)[C@H]1O` are 0.286 µM, 0.344 µM and 0.202 µM.
At Adenosine receptor A3, `O=[N+]([O-])c1nc(NCc2ccccc2)c2ncn([C@@H]3O[C@H](CO)[C@@H](O)[C@H]3O)c2n1` showed a Ki of 0.163 µM. The compound also returned a Displacement in assay [1] of 20%.
In the case of `O=[N+]([O-])c1cc(NC2CCCC2)c2ncn([C@@H]3O[C@H](CO)[C@@H](O)[C@H]3O)c2n1`, the Ki came out at 0.0526 µM at Adenosine receptor A1 and 0.34 µM on Adenosine receptor A3. In assay [1], this compound came in with a Displacement of 52%.
